# Data as given in US8298993B2, “Herbicidal composition and method of use thereof” (Syngenta Crop Protection LLC, priority 2006, dated 2012).
# Legend:
# [1] = system: white clover (Trifolium repens); assay: Glasshouse trial, control of white clover, post-emergence application; format: in vivo; conditions: 16 DAT
# Protocol: A glasshouse trial was carried out. White clover seeds were sown into standard glasshouse potting mix (1:1 v/v Promix:Vero sand soil) contained in 10 cm square plastic pots. Treatments were replicated three times. Mesotrione (in the form Callisto®480SE) was applied post-emergence to white clover (Trifolium repens) at either 50 g ai/ha or 100 g ai/ha with or without s-metolachlor (in the form Dual Magnum®). […] The adjuvant system was X-77 at 0.1% v/v in deionised water. 200 liters of herbicide/adjuvant system was used per hectare. General weed control was evaluated at 10 and 16 days after treatment (DAT). It is noted that all herbicides were applied at reduced field rates because herbicide effects are magnified in a glasshouse environment. Rates were chosen to give a 50 to 70% level of control with herbicides applied alone as this allows for detection of any synergistic effect when tank mixtures are used. […] The results were evaluated using the Colby formula. The expected result for (A+B) is (A+B)−(A×B/100) where A and B are the ‘observed’ results for A and B on their own.
# [2] = system: large crabgrass (Digitaria sanguinalis); assay: Glasshouse trial, control of large crabgrass, post-emergence application; format: in vivo
# Protocol: A glasshouse trial was carried out. Large crabgrass seeds were sown into standard glasshouse potting mix (1:1 v/v Promix:Vero sand soil) contained in 10 cm square plastic pots. Treatments were replicated three times. Mesotrione (in the form Callisto® 480SE) was applied post-emergence to large crabgrass (Digitaria sanguinalis) at either 12 g ai/ha or 24 g ai/ha with or without s-metolachlor (in the form Dual Magnum®). When used, s-metolachlor was applied at a rate of 500 g ai/ha or 1000 g ai/ha. The adjuvant system was X-77 at 0.1% v/v in deionised water. 200 liters of herbicide/adjuvant system was used per hectare. General weed control was evaluated at 7 and 14 days after treatment (DAT). It is noted that all herbicides were applied at reduced field rates because herbicide effects are magnified in a glasshouse environment. Rates were chosen to give a 50 to 70% level of control with herbicides applied alone as this allows for detection of any synergistic effect when tank mixtures are used. […] The results were evaluated using the Colby formula. The expected result for (A+B) is (A+B)−(A×B/100) where A and B are the ‘observed’ results for A and B on their own.
# large crabgrass = assay: Control of large crabgrass, pre-emergent application of the herbicides; format: in vivo, Digitaria sanguinalis; conditions: s-metolachlor 5 g ai/ha in the absence of mesotrione
Compound,"control of white clover, herbicide alone ([1]; s-metolachlor on its own at 500 g ai/ha)","control of large crabgrass, herbicide alone ([2]; first experiment, s-metolachlor on its own (500 or 1000 g ai/ha), post-emergence, 14 DAT)","control of large crabgrass, herbicide alone ([2]; repeat experiment, s-metolachlor 500 g ai/ha in the absence of mesotrione, 14DAT)","control of large crabgrass, herbicide alone ([2]; repeat experiment, s-metolachlor 1000 g ai/ha in the absence of mesotrione, 14DAT)","control of large crabgrass, herbicide alone (large crabgrass)","control of white clover, herbicide alone ([1]; mesotrione alone at the lower rate (50 g ai/ha))","control of large crabgrass, herbicide alone ([2]; mesotrione alone, post-emergence, 7 DAT)"
s-metolachlor,3%,no control,7%,7%,95%,,
"CS(=O)(=O)c1ccc(C(=O)C2C(=O)CCCC2=O)c([N+](=O)[O-])c1 [mesotrione, 2-(2′-nitro-4′-methylsulphonylbenzoyl)-1,3-cyclohexanedione]",,,,,,32%,relatively high
